Experimental findings from patent US7585826B2, “Compositions counteracting pesticides and malodorants” (priority 2007, dated 2009) are described below.

The nature of data set [1]: Decomposition rate of 17 pesticides mixed with the composition prepared in Example 1 (HPLC), against tap water or 10% brine controls. Type of data set: physicochemical. The note with it: 10 ppm pesticide, composition of Example 1, 5 min; among seventeen pesticides. As for the experimental part:
The above-prepared composition was tested to decompose 17 pesticides, i.e., Diazinon, Terbufos, Acephate, Glyphosate, Phosmet, Mevinphos, Benomyl, Metalaxyl, Pyrnetrozine, Methomyl, Fenobucard, Carbendazim, Pencycuron, Hexaconazole, Thiophanate-methyl, Cartap, and Thiabendazole. The decomposition rates were measured as follows:
Each pesticide was dissolved in tap water at a concentration of 10 ppm. 10 mL pesticide solution was mixed with 10 mL of the composition prepared in Example 1 for 5 min. 10 mL pesticide solution was also mixed with 10 mL tap water or 10 mL 10% brine solution to prepare control solution. The pesticide concentration of each tested reaction solution was measured by high performance liquid chromatography.

Data set [2] in a line: Time-course decomposition of pesticides reacted with the composition prepared in Example 1 (HPLC). The note with it: 7.5 mL of 10 ppm pesticide + 2.5 mL composition of Example 1; after 5.0 min reaction time. Type of data set: physicochemical. Here is the method: 7.5 mL of a pesticide solution, containing 10 ppm Terbufos, Diazinon, Hexaconazole, or Fenobucard, was allowed to react with 2.5 mL of the composition prepared in Example 1 for 1.0 min, 3.0 min, and 5.0 min, respectively. HPLC was used to determine the concentrations of the pesticide.

Structures are written as SMILES.

Turning to `COP(=O)(NC(C)=O)SC` (stereo not shown) [Acephate], the “decomposition rate compared with the other pesticides tested” value in data set [1] is “higher rates than the others”.

Turning to `CCOP(=S)(OCC)Oc1cc(C)nc(C(C)C)n1` [Diazinon], in data set [2], the pesticide decomposed stood at 87%.

Turning to `CCC(C)c1ccccc1OC(=O)NC` (stereo not shown) [Fenobucard], the pesticide decomposed in data set [2] is listed as 76%.

As to `CCCCC(O)(Cn1cncn1)c1ccc(Cl)cc1Cl` (stereo not shown) [Hexaconazole], the “decomposition rate compared with the other pesticides tested” value in data set [1] is recorded as “higher rates than the others”. Besides, the pesticide decomposed in data set [2] worked out at 85%.

With `CCOP(=S)(OCC)SCSC(C)(C)C` [Terbufos], in data set [1], the “decomposition rate compared with the other pesticides tested” value was “higher rates than the others”. For the same molecule, in data set [2], the pesticide decomposed is on record as 91%.
